Reference: paper PMC9824695 (Molecules, 2023)
“Also recorded” adds a separate entry of the source. Where two headings read alike, the source gives them in different places.

Columns and labels:
MOR = details: cited from earlier work
opioid receptors = details: cited from earlier work
DOR = details: cited from earlier work
male Kunming mice [1] = assay: Radiant heat tail-flick test; assay type: in vivo, mouse (Kunming); details: for ED50: Mus musculus, sc
Source text: The radiant heat tail-flick test has been widely used as an acute pain model to examine the effects of analgesics. The mice were gently stabilized by hand, and the dorsal surface of the tail, 3 cm from the distal end, was placed on a radiant heat source. The cutoff time was set to 10 s to avoid tissue damage. Radiant heat intensity was adapted to engender a basal latency within 3–5 s in naive mice. Tail-flick latency was defined as the time when the mouse flicked its tail away from the radiant heat source. The data of antinociceptive effects for each animal after treatment were calculated as a percentage of the maximal possible effect (MPE%): MPE (%) = 100 × [(postdrug response − baseline response)/(cutoff response − baseline response)]. The MPE% from each animal was converted to an area under the curve (AUC).
Statistical significance was set at p < 0.05.

male Kunming mice [2] = assay: Carrageenan-induced inflammatory pain; assay type: in vivo, mouse (Kunming); details: s.c.
male Kunming mice [3] = assay: Acetic acid-induced writhing test; assay type: in vivo, mouse (Kunming); details: 0.6% acetic acid i.p.
Protocol: An acetic acid-induced writhing test was performed to investigate visceral pain [43]. The increase in intensity of drug analgesia would be accompanied by a decrease in the writhing number. The mice were acclimatized in a transparent acrylic chamber (20 × 20 × 30 cm) for 15–20 min. First, the mice were subcutaneously injected with drugs. Five minutes later, they were intraperitoneally injected with 0.6% acetic acid solution. Within 5–15 min after injecting acetic acid, the number of writhes was recorded. Writhe was defined as a contraction of the abdominal muscles and stretching of the hind limbs.

male Kunming mice [4] = assay: Formalin test; assay type: in vivo, mouse (Kunming); details: phase I 0–5 min
Protocol: The formalin test was conducted to explore a characteristic biphasic pain response. The better the analgesic effect in mice, the shorter the average licking/biting/shaking paw time. The mice were acclimated in a transparent plexiglass chamber (20 × 20 × 30 cm) for 15–20 min. First, the mice received a subcutaneous injection of drugs. Five minutes later, 20 μL of 5% formalin was administered by intraplantar injection to the right hind paw. The mice were immediately placed back in the chamber. Simultaneously, the time spent licking, biting, and shaking the injected paw was recorded within 0–5 and 15–30 min.

male Kunming mice [5] = assay: Conditioned place preference; assay type: in vivo, mouse (Kunming); details: 10 mg/kg s.c.
Protocol: The conditioned place preference experiment is a classical model for evaluating dependence. The device consisted of three compartments. Two large compartments (20 × 20 × 20 cm) were connected by a narrower compartment (5 × 20 × 20 cm). The large compartments were visually and tactually distinct (white walls with rough floors and black walls with smooth floors). Before the unbiased experiment, the mice were allowed to move freely for 15 min to accommodate the apparatus. On the first day, the time the mice spent in each compartment was documented within 15 min. Over the next 3 days, the mice were subcutaneously administered drugs and were limited to one of the two large compartments. Approximately 6 h later, the mice were subcutaneously injected with saline and confined to the opposite compartment. On the fifth day, the mice moved freely for 15 min, and the time spent in the drug-associated preference compartment was recorded. The conditioned place preference score was calculated as: score = time spent in the drug-associated preference compartment on the fifth day − time spent in the same compartment on the first day.

male Kunming mice [6] = assay: Gastrointestinal transit test (charcoal meal); assay type: in vivo, mouse (Kunming); details: 10 mg/kg s.c.; for GIT%: 15 min before charcoal meal, 30 min, p < 0.05, lower = stronger inhibition
Protocol: The mice were fasted for 16 h with free access to water. Drugs were subcutaneously injected 15 min before the oral administration of a charcoal meal (an aqueous suspension of 5% charcoal and 10% gum arable). Thirty minutes after the oral administration, the animals were sacrificed. The farthest traveled distance by the charcoal meal (L1) and total length of the small intestine (L2) were measured. The GIT inhibition by analgesics was represented by GIT% = (L1/L2) × 100.

male Kunming mice [7] = assay: Acute hyperlocomotion test (open field); details: 10 mg/kg s.c.; 150 min
male Kunming mice [8] = assay: Antinociceptive tolerance (tail-flick, 8 days); details: 10 mg/kg s.c. once a day
male Kunming mice [9] = assay: Naloxone-induced withdrawal response (jumping); details: 10 mg/kg s.c.; method: 20, 40, 60, 80, 100, 100, 100 mg/kg every 8 h, naloxone 10 mg/kg
[10] = biological target: human mu opioid receptor (CHOhMOP) (Homo sapiens, UniProt P35372); assay: cell-based
male Kunming mice [11] = assay: Rotarod test; assay type: in vivo, mouse (Kunming); details: 10 mg/kg s.c.; compared with saline
[12] = Blood-brain barrier penetration; details: inferred from naloxone methiodide s.c. vs i.c.v. antagonism in mice
[13] = 15% mouse brain homogenate; cited from earlier work
human sperm = assay: Human sperm motility in vitro; details: 0.0001, 0.001, 0.01, 0.1, 1, or 10 µM, 4-h incubation, 37 °C, n = 5
[14] = biological target: human delta opioid receptor (CHOhDOP) (Homo sapiens, UniProt P41143); assay: Calcium mobilization assay, CHOhDOP cells
mice = system: mice; set-up: method as in 2 sources, ref 9 = [9]; PMID 9087409; doi:10.1038/386499a0; 9. Zadina J.E. Hackler L. Ge L.-J. Kastin A.J.J.N. A potent and selective endogenous agonist for the µ-opiate receptor Nature 1997 386 499 502 10.1038/386499a0 9087409 ||| ref 16 = [16]; PMID 31444977; doi:10.1111/bph.14848; 16. Xu B. Zhang M. Shi X. Zhang R. Chen D. Chen Y. Wang Z. Qiu Y. Zhang T. Xu K. The multifunctional peptide DN-9 produced peripherally acting antinociception in inflammatory and neuropathic pain via; details: cited from earlier work
[15] = cited from earlier work
KOR = details: cited from earlier work
Source text: Table 2 The actions of agonists and antagonists at opioid receptors. | column: Ki^(KOR) (nM)

Chain of human mu opioid receptor (CHOhMOP) (P35372 whole entry): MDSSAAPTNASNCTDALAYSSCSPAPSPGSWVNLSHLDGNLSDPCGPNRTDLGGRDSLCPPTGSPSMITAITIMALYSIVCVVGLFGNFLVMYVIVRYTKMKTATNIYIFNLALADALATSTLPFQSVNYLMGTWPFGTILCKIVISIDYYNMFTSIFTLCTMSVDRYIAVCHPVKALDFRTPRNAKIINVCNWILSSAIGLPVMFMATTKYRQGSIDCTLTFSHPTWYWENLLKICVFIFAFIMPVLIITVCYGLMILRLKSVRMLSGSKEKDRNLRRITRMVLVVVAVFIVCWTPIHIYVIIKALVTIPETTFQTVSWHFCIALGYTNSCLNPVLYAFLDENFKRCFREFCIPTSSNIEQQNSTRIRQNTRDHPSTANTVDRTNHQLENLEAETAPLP
Chain of human delta opioid receptor (CHOhDOP) (P41143 whole entry): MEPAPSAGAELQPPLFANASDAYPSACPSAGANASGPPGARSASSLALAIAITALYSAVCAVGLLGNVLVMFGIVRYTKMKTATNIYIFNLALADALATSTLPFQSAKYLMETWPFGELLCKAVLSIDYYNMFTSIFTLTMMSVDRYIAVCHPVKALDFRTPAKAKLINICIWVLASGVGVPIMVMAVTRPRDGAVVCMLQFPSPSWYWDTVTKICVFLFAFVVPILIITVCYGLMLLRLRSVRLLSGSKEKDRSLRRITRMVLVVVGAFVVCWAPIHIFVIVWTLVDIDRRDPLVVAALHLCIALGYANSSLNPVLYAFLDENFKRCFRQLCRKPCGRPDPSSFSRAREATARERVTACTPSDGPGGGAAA

What does the source list for `COC(=O)/C=C/C(=O)N[C@@H]1CC[C@@]2(O)[C@H]3Cc4ccc(O)c5c4[C@@]2(CCN3CC2CC2)[C@H]1O5` [β-funaltrexamine]?
Ki (MOR; binds covalently to MOR): 0.3 nM; Antagonist (receptors) (opioid receptors): The inhibition constant (Ki) represented the agonist or antagonist affinity. ^a Drug dosage was in mg/kg (or µmol/kg) for each animal (subcutaneously). ^b β-funaltrexamine binds covalently to MOR. MOR, mu opioid receptor; DOR, delta opioid receptor; KOR, kappa opioid receptor. nM, nmol/L; also recorded: MOR ^b

What does the source list for `Oc1ccc2c3c1O[C@H]1c4[nH]c5ccccc5c4C[C@@]4(O)[C@@H](C2)N(CC2CC2)CC[C@]314` [naltrindole]?
Ki (DOR): 0.02 nM; Antagonist (receptors) (opioid receptors): DOR

Which “Antagonist (receptors)” value (opioid receptors) does the source give for `Oc1ccc2c3c1O[C@H]1c4[nH]c5c(c4C[C@@]4(O)[C@@H](C2)N(CC2CC2)CC[C@]314)C[C@@]1(O)[C@H]2Cc3ccc(O)c4c3[C@@]1(CCN2CC1CC1)[C@H]5O4` [nor-binaltorphimine] here?
Its value is “KOR”.

Which ED50 (male Kunming mice [1]; mice, equivalent of the mg/kg value, read-out: antinociceptive ED50 (molar equivalent)) does the source give for `CN1CC[C@]23c4c5ccc(O)c4O[C@H]2[C@@H](O)C=C[C@H]3[C@H]1C5` [morphine] here?
The ED50 was 16.3 µmol/kg.

And the ED50 (male Kunming mice [1]; read-out: antinociceptive ED50)?
The ED50 was 5.24 mg/kg.

What about the “time of peak tail-flick latency” value (male Kunming mice [1]; s.c., mice) of the same compound?
Its value is 30 min.

And the “duration of anti-allodynic activity” value (male Kunming mice [2]; carrageenan-treated mice)?
Its value is 60 min.

What about the “time of peak anti-allodynic effect” value (male Kunming mice [2]; post-injection) of the same compound?
The value was 30 min.

And the average writhing number (male Kunming mice [3]; 1 mg/kg s.c., 5–15 min, mean ± S.E.M., saline 34 ± 2.49)?
Its average writhing number is 4.60 ± 2.43.

And the “inhibition of writhing response (in words)” value (male Kunming mice [3]; s.c.)?
The value was “inhibited the writhing response”.

And the “formalin test phase I response” value (male Kunming mice [4]; 10 mg/kg s.c., 5% formalin intraplantar, mean ± S.E.M., p < 0.05, lower = better)?
Its value is 67.36 ± 3.93.

What about the “formalin-induced nociceptive responses, phases I and II (in words)” value (male Kunming mice [4]; s.c., morphine 10 mg/kg, phase II 15–30 min) of the same compound?
The value was “attenuated nociceptive responses in both phases I and II”.

And the “conditioned place preference (in words)” value (male Kunming mice [5])?
Its value is “significant place preference change”.

What about the “conditioned place preference score” value (male Kunming mice [5]; mean ± S.E.M.) of the same compound?
The value was 140.50 ± 43.96.

And the “gastrointestinal transit (in words)” value (male Kunming mice [6])?
Its value is “significantly weakened the GIT and exhibited a greater inhibitory effect than HAGD”.

And the GIT% (male Kunming mice [6])?
The GIT% was 24.11 ± 3.79%.

And the “locomotor activity (in words)” value (male Kunming mice [7])?
Its value is “enhanced the locomotor activity of mice and significantly increased the total distance traveled compared with saline or HAGD”.

And the antinociceptive tolerance (male Kunming mice [8])?
Its antinociceptive tolerance is “decreased significantly from days 5 to 8; also recorded: produced antinociceptive tolerance in the tail-flick test”.

And the withdrawal response (male Kunming mice [9])?
The withdrawal response was “significant withdrawal response; also recorded: significant physical dependence”.

For `C[C@@H](NC(=O)[C@@H](N)Cc1ccc(O)cc1)C(=O)NCC(=O)N[C@@H](Cc1ccccc1)C(N)=O` [HAGD, H-Tyr-D-AIa-GIy-Phe-NH2], which Emax [10] is on record?
The Emax was 103 ± 1.58%.

What about the EC50 ([10]; CHOhMOP, duplicate, repeated at least three times) of the same compound?
The EC50 was 81.7 nM.

And the “conditioned place preference (in words)” value (male Kunming mice [5])?
Its value is “did not induce a place preference change; also recorded: substantial difference in the conditioned place preference scores between the HAGD and morphine groups”.

What about the “gastrointestinal transit (in words)” value (male Kunming mice [6]) of the same compound?
Its value is “significant delay compared with saline”.

What about the GIT% (male Kunming mice [6]) of the same compound?
Its GIT% is 44.83 ± 4.14%.

And the “endurance time on rotating rod (in words)” value (male Kunming mice [11])?
The value was “no significant difference in the endurance time”.

And the BBB permeability [12]?
Its BBB permeability is “poor BBB permeability; also recorded: poor ability of HAGD to penetrate the BBB into the CNS”.

And the “half-life in brain homogenate” value [13]?
Its value is 4.3288 ± 0.6835 h.

And the “sperm progressive motility (PR), HAGD (in words)” value (human sperm)?
The value was “did not produce significant changes in sperm PR; also recorded: did not have a significant negative effect on human sperm motility”.

What about the “locomotor activity (in words)” value (male Kunming mice [7]) of the same compound?
The value was “did not show an apparent effect on locomotion compared with saline”.

And the EC50 [14]?
Its EC50 is 2630 nM.

And the Emax ([14]; read-out: Emax ± S.E.M.)?
Its Emax is 110 ± 7.21%.

What about the antinociceptive tolerance (male Kunming mice [8]) of the same compound?
The antinociceptive tolerance was “non-tolerance antinociception for 8 consecutive days; also recorded: non-tolerance antinociception for eight consecutive days”.

And the withdrawal response (male Kunming mice [9])?
Its withdrawal response is “significant withdrawal response; also recorded: significant physical dependence”.

What does the source list for Tyr1-Pro2-Trp3-Phe4-NH2 [endomorphin-1]?
selectivity for MOR (MOR): highly selective for MORs; half-life in brain homogenate [13]: 0.3923 ± 0.00417 h; antinociception compared with morphine (mice): more potent and prolonged antinociception than morphine in mice; BBB crossing ([15]; into the CNS as an analgesic): inability of endomorphin-1 to cross the blood–brain barrier (BBB)

What does the source list for `C=CC[N+]1(C)CC[C@]23c4c5ccc(O)c4O[C@H]2C(=O)CC[C@@]3(O)[C@H]1C5` (stereo partly shown) [naloxone methiodide]?
Ki (MOR): 28.9 nM; Ki (DOR): 1010 nM; Ki (KOR): 204 nM; Antagonist (receptors) (opioid receptors): MOR DOR KOR; peripheral restriction ([15]; opioid receptor antagonist): peripherally restricted

For Tyr1-Pro2-Phe3-Phe4-NH2 [endomorphin-2], which “selectivity for MOR” value (MOR) is on record?
Its value is “highly selective for MORs”.

And the “antinociception compared with morphine” value (mice)?
Its value is “more potent and prolonged antinociception than morphine in mice”.
